Source: publication PMC10947197, “Acid‐Resistant BODIPY Amino Acids for Peptide‐Based Fluorescence Imaging of GPR54 Receptors in Pancreatic Islets” (Angewandte Chemie (International Ed. in English), 2023)
Numbered stars: 1 amine (or outer) side, 2 acyl side, 3 side chain; on linkers, the order of the positions; unused ones are H or OH. Square brackets hold non-standard residues; d marks the D form. Peptide text beside a SMILES is read from it. X1 = CC1=CC(C)=[N+]2C1=C(c1cccc(-c3[nH]c4ccccc4c3C[C@H](N[*:1])C(=O)[*:2])c1)c1c(C)cc(C)n1[B-]2(C#N)C#N

How the values were obtained:
hGPR54 = biological target: T1, hGPR54 (Homo sapiens, UniProt Q969F8); experiment: Calcium mobilization assay in HEK293 cells stably expressing hGPR54; format: cell-based; conditions: HEK293 cells stably expressing hGPR54, 50,000 cells per well, Fluo4 NW Ca2+ assay kit, GraphPad Prism 9 sigmoidal fit; read-out: EC50 (Ca2+ influx, agonist)
T1 construct: expressed in transfected cells
T1 sequence (Q969F8 whole entry): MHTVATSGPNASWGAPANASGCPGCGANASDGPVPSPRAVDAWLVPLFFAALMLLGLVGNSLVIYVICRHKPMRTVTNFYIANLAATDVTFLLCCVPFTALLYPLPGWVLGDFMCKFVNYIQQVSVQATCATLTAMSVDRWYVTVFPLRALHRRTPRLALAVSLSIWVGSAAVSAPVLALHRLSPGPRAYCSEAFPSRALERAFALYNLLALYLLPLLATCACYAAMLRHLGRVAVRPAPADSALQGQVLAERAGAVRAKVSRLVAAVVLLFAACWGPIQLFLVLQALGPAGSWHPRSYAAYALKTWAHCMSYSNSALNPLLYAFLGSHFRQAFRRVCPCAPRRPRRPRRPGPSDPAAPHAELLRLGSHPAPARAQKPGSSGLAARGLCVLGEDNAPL

[1] = Stability analysis of Trp-BODIPY FlAAs under SPPS conditions; conditions: r.t.; for Stability (purity by HPLC-MS): 70 μM; for Chemical stability (HPLC-MS): 70 µM;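 for all read-outs here: chemical integrity of the BODIPY-labelled tryptophan amino acids checked after exposure to reagents used in solid-phase peptide synthesis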
Protocol: Next, we studied the stability of Trp‐BODIPY PLUS in TFA and compared it to that of Trp‐BODIPY (Table 2).
Analysis of t he chemical st abilit y of T rp-BO DI PY and T rp-
BODIPY PLUS under conve nt ion al SPPS condit i ons. Amino aci ds were di lut ed w it h
dif f erent rea gent mixt ur es (70 µ M , f inal v olum e 10 0 uL) a nd st irre d at r. t . f or 1 h
( c ondit i ons A-B and E-H) or 5 m i n ( c o ndit i ons C an d D).
Fmoc-T rp -BO DI PY(X)2-OH
En t ry Conditions X = F X = CN

[2] = Integrity of BODIPY core in crude peptides after cleavage with 95% TFA (HPLC-MS); format: physicochemical; conditions: crude peptide
Source text: To study the application of Trp‐BODIPY PLUS for SPPS of fluorogenic peptides, we first prepared analogues of the model linear sequence KYRAE, which contains a range of non‐polar, positively‐charged and negatively‐charged residues with different PGs (e.g., Boc, tBu, Pbf). We performed the synthesis using standard Fmoc/tBu SPPS conditions (e.g., OxymaPure and 1‐ cyano‐2‐ethoxy‐2‐oxoethylidenaminooxy)dimethylamino‐mor‐pholino‐carbenium hexafluorophosphate (COMU) for couplings, piperidine:DMF (2 : 8) for Fmoc removal) and introduced Trp‐BODIPY PLUS at the N‐terminal end. We performed the cleavage of the labeled peptide (i.e., W(BODIPYplus)KYRAE, peptide 4, Figure 1) with 95 % TFA and compared the purity of the crude to that obtained when using the acid‐labile Trp‐BODIPY (i.e., W(BODIPY)KYRAE, peptide 5, Figure 1). […] Overall, we isolated the model peptide 4 in good yields >20 % and >95 % purity after HPLC purification (see Supporting Information for synthetic and characterization details).

apoptotic cells = conditions: ref [10e]; cited from earlier work
Source text: Next, we assessed whether incorporation of Trp‐BODIPY PLUS enabled retention of the molecular recognition features of bioactive peptides. […] Because Apo‐15 contains one Trp‐BODIPY residue within its sequence, we synthesized the corresponding analogue using Trp‐BODIPY PLUS as the FlAA.

For CC(C)C[C@H](NC(=O)CNC(=O)[C@H](Cc1ccccc1)NC(=O)[C@H](CO)NC(=O)[C@H](CC(N)=O)NC(=O)[C@H](Cc1c[nH]c2ccccc12)NC(=O)[C@H](CC(N)=O)NC(=O)[C@@H](N)Cc1ccc(O)cc1)C(=O)N[C@@H](CCCNC(=N)N)C(=O)N[C@@H](Cc1ccccc1)C(N)=O [KP-10, reference compound], which EC50 (hGPR54) is on record?
Its EC50 is 0.22 nM.

For CC1=CC(C)=[N+]2C1=C(c1cccc(-c3[nH]c4ccccc4c3C[C@H](NC(=O)OCC3c4ccccc4-c4ccccc43)C(=O)O)c1)c1c(C)cc(C)n1[B-]2(F)F [Trp-BODIPY, reference compound], which “Stability (purity by HPLC-MS)” value ([1]; 2% N2H4 in DMF, 60 min) is on record?
Its value is over 95%.

And the “Stability (purity by HPLC-MS)” value ([1]; 95% TFA, 2.5% DTT, 60 min, DCM)?
The value was under 5%.

And the “Stability (purity by HPLC-MS)” value ([1]; 95% TFA, 2.5% H2O, 60 min, DCM)?
Its value is under 5%.

What about the “Stability (purity by HPLC-MS)” value ([1]; 95% TFA, 2.5% TIS, 60 min, DCM) of the same molecule?
Its value is under 5%.

What about the “Stability (purity by HPLC-MS)” value ([1]; 95% TFA, 5 min, DCM) of the same molecule?
The value was under 5%.

What about the “Stability (purity by HPLC-MS)” value ([1]; 95% TFA, 60 min, DCM) of the same molecule?
Its value is under 5%.

What about the “Stability (purity by HPLC-MS)” value ([1]; I2 (5 eq) in MeOH, 60 min) of the same molecule?
The value was 38%.

And the “Stability (purity by HPLC-MS)” value ([1]; Pd(PPh3)4 (0.1 eq), PhSiH3 (10 eq), 60 min, DCM)?
Its value is over 95%.

And the “Chemical stability (HPLC-MS)” value ([1]; Supplementary Table 2 entry A: 1% TFA, 2.5% DTT, 1 h)?
Its value is over 95%.

And the “Chemical stability (HPLC-MS)” value ([1]; Supplementary Table 2 entry B: 5% TFA, 2.5% DTT, 1 h)?
The value was 34%.

What about the “Chemical stability (HPLC-MS)” value ([1]; Supplementary Table 2 entry C: 95% TFA, 2.5% DTT, 5 min) of the same molecule?
The value was 7%.

What about the “Chemical stability (HPLC-MS)” value ([1]; Supplementary Table 2 entry D: 20% piperidine: DMF, 5 min) of the same molecule?
Its value is over 95%.

What about the “Chemical stability (HPLC-MS)” value ([1]; Supplementary Table 2 entry E: 5% NaHCO3 (aq), 1 h) of the same molecule?
Its value is over 95%.

What about the “Chemical stability (HPLC-MS)” value ([1]; Supplementary Table 2 entry F: 5% Na2CO3 (aq), 1 h) of the same molecule?
Its value is over 95%.

What about the “Chemical stability (HPLC-MS)” value ([1]; Supplementary Table 2 entry G: 1% DIPEA: DMF, 1 h) of the same molecule?
The value was over 95%.

What about the “Chemical stability (HPLC-MS)” value ([1]; Supplementary Table 2 entry H: 0.1 M HOBt: TFE, 1 h) of the same molecule?
Its value is over 95%.

And the “Stability (purity by HPLC-MS)” value ([1]; TBAF (3 eq), 60 min, DCM)?
Its value is over 95%.

For CC1=CC(C)=[N+]2C1=C(c1cccc(-c3[nH]c4ccccc4c3C[C@H](NC(=O)[C@H](CC(N)=O)NC(=O)[C@@H](N)Cc3ccc(O)cc3)C(=O)N[C@@H](CC(N)=O)C(=O)N[C@@H](CO)C(=O)N[C@@H](Cc3ccccc3)C(=O)NCC(=O)N[C@@H](CC(C)C)C(=O)N[C@@H](CCCNC(=N)N)C(=O)N[C@@H](Cc3ccccc3)C(N)=O)c1)c1c(C)cc(C)n1[B-]2(C#N)C#N [peptide 7] (H-YN[X1]NSFGLRF-NH2), which EC50 (hGPR54) is on record?
The EC50 was 2.5 nM.

For “W(BODIPY)KYRAE [peptide 5, model linear peptide KYRAE with acid-labile Trp-BODIPY at the N-terminal end]”, which “Stability of BODIPY core after cleavage (in words)” value [2] is on record?
Its value is “completely degraded”.

For “W(BODIPYplus)KYRAE [peptide 4, model linear peptide KYRAE with Trp-BODIPY PLUS at the N-terminal end]”, which “Stability of BODIPY core after cleavage (in words)” value [2] is on record?
Its value is “remained fully stable”.

For “cyclo(GRKKWFW(BODIPY)) (head to tail) [Apo-15]”, which “Ca2+ dependence of apoptotic cell labelling (in words)” value (apoptotic cells) is on record?
Its value is “independent on the concentration of Ca^2+ ions”.

And the “Selective labelling of apoptotic cells (in words)” value (apoptotic cells)?
Its value is “fluorogenic probe for selective labeling of apoptotic cells”.
